The text below walks through data of patent publication US11447484B2, “Cyclic compound having dopamine D3 receptor antagonistic effect” (Shionogi & Co., Ltd., priority 2018, dated 2022).

The target of test [1] is human recombinant D2 receptor (Homo sapiens (Human), UniProt P14416). Put plainly: Test of binding inhibition for dopamine D2 receptor. The following applies: Jump-In HEK cell membranes, 1.2 nM [3H]-Methylspiperone, 120 min at 25° C.; read-out: hD2_Ki. Here is the method: Test Example 2: Test of Binding Inhibition for Dopamine D2 Receptor
human recombinant D2 receptor, sequence (P14416 whole entry): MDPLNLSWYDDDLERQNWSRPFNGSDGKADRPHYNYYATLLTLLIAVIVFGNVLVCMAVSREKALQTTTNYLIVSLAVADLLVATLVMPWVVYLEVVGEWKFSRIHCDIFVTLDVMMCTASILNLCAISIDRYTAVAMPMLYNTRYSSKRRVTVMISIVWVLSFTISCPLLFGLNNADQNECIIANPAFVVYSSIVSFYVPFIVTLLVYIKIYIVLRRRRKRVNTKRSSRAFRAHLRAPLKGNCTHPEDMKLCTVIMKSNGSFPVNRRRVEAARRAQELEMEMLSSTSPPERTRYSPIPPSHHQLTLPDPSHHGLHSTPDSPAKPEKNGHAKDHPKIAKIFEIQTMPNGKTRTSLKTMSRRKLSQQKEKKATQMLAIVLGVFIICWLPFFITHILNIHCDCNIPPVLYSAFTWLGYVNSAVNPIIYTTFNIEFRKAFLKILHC
(§1) (Experimental Conditions)
Cell membranes: Jump-In HEK cell membranes expressing human recombinant D2 receptor (2 μg/well)
(§2) Buffer solution: 50 mM Tris-HCl (35409-45, Nacalai Tesque) (pH 7.4) containing 120 mM NaCl (31320-05, Nacalai Tesque), 1 mM MgCl2.6H2O (20909-55, Nacalai Tesque), 5 mM KCl (28514-75, Nacalai Tesque) and 2 mM CaCl2 (067-31, NAKARAI CHEMICALS, LTD.)
Radioligand: (final concentration) 1.2 nM [^3H]-Methylspiperone ([^3H—N-methyl-]-Methylspiperone, NET-856, 83.8 Ci/mmol, PerkinElmer)
Non-specific ligand: (final concentration) 10 μM Butaclamol [(+)-Butaclamol Hydrochloride, D033; Sigma]
(§3) SPA beads solution: SPA beads [WGA PVT SPA Scintillation Beads, RPNQ0001 (500 mg), RPNQ0060 (2 g), PerkinElmer] (0.2 mg/well)
(§4) Incubation time and temperature: 120 min at 25° C.
(§5) Butaclamol or the compounds of the present invention were weighed and DMSO was added to make a 10 mM solution. This solution was diluted to each concentration.
[^3H]-Methylspiperone was weighed and the buffer solution was added to make a 3.6 nM solution.
(§6) SPA beads were weighed and stirred in water to make a 50 mg/mL solution. Using this solution, a mixture with the cell membranes was prepared.
(§7) 225 nL of the solutions of the non-specific ligand or the compounds of the present invention at each concentration (in case of vehicle, final concentration 0.3% DMSO) were added in each well of a 384-well white/clear bottom microplate (3706, Corning). Jump-In HEK Cell membranes (final reaction amount: 2 μg protein/well), the SPA bead solution (final reaction amount: 0.2 mg/well) and the buffer solution were mixed and the mixed solution was left still for 1 hour or more at 4° C. Then, 50 μL of the mixture was added to each well of the plate. In addition, 25 μL of 3.6 nM [^3H]-Methylspiperone (final concentration: 1.2 nM) was added to each well. The plate was sealed by putting TopSeal-A 96/384 well (6050185, PerkinElmer) on the top of the plate, mixed using stirring deaerator (Well Tornado, FK-62, Sakaki-elc.) and incubated for 120 min at 25° C. After incubation, the radioactivity of [^3H]-Methylspiperone which was bonded to D2 receptor was determined by liquid scintillation counter (1450 Microbeta, PerkinElmer) in each well. Non-specific binding was calculated based on the radioactivity of [^3H]-Methylspiperone in the presence of 10 μM non-labeled Butaclamol. The total binding was calculated using the radioactivity of [^3H]-Methylspiperone in the absence of the compounds of the present invention (vehicle). The Ki values were calculated from dose-response curves.
(§8) Binding activities of the compounds of the present invention were calculated from the following Binding Inhibition Rate (%): Inhibition Rate(%)=[1−(c−a)/(b−a)]×100 • a: Average cpm of non-specific binding • b: Average cpm of total binding • c: Cpm in the presence of each test compound

Test [2] concerns the target human recombinant D3 receptor (Homo sapiens (Human), UniProt P35462). Put plainly: Test of binding inhibition for dopamine D3 receptor. The following applies: Jump-In HEK cell membranes, 2 nM [3H]-Methylspiperone, 120 min at 25° C.; read-out: hD3_Ki. Here is the method: Test Example 1: Test of Binding Inhibition for Dopamine D3 Receptor
as §1
Cell membranes: Jump-In HEK cell membranes expressing human recombinant D3 receptor (4 μg/well)
as §2
Radioligand: (final concentration) 2 nM [^3H]-Methylspiperone ([^3H—N-methyl-]-Methylspiperone, NET-856, 83.8 Ci/mmol, PerkinElmer)
Non-specific ligand: (final concentration) 10 μM Butaclamol [(+)-Butaclamol Hydrochloride, D033, Sigma]
as §3, §4, §5
[^3H]-Methylspiperone was weighed and the buffer solution was added to make a 6 nM solution.
as §6
as §7, with “amount: 4” for “amount: 2”, “SPA beads” for “SPA bead”, “of 6” for “of 3.6”, “concentration: 2” for “concentration: 1.2”, “(6050185, PerkinElmer, Inc.)” for “(6050185, PerkinElmer)”, “to D3” for “to D2”
as §8

human recombinant D3 receptor, sequence (P35462 whole entry): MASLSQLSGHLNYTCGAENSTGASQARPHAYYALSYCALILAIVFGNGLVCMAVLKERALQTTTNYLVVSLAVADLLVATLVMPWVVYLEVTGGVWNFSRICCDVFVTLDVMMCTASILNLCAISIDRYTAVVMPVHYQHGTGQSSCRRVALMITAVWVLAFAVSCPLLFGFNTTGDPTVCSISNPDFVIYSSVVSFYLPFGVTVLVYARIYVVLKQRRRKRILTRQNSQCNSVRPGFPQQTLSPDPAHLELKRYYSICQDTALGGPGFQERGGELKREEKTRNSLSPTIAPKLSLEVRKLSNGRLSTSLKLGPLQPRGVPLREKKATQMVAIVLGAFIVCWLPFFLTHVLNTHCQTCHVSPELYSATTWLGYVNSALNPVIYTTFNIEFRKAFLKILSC

Consider `O=C(N[C@H]1CC[C@H](CCN2CCC(c3nccn3-c3ccccn3)CC2)CC1)c1cccc2ncccc12` [Compound I-001], for which the Ki was greater than 1700 nM in test [1] and 3.3 nM in test [2]. In the case of `O=C(N[C@H]1CC[C@H](CCN2CCC(c3nocc3-c3ccccc3)CC2)CC1)c1cccc2ncccc12` [Compound I-002], the Ki in test [1] turned out to be 32 nM; in test [2], 0.12 nM. The like results for `O=C(N[C@H]1CC[C@H](CCN2CCC(c3nocc3-c3cccc(F)c3)CC2)CC1)c1cccc2ncccc12` [Compound I-003] were, in that order, 36 nM and 0.093 nM. On the same counts, the results for `O=C(N[C@H]1CC[C@H](CCN2CCC(c3nocc3C3CC3)CC2)CC1)c1cccc2ncccc12` [Compound I-004] are 160 nM and 0.6 nM. Consider `O=C(N[C@H]1CC[C@H](CCN2CCC(c3conc3-c3ccccc3)CC2)CC1)c1cccc2ncccc12` [Compound I-005], for which the Ki is 860 nM in test [1] and 1.2 nM in test [2]. On to `O=C(N[C@H]1CC[C@H](CCN2CCC(c3ccnn3-c3ccccc3)CC2)CC1)c1cccc2ncccc12` [Compound I-006], for which the Ki was 1100 nM in test [1] and 4 nM in test [2]. The like results for `O=C(N[C@H]1CC[C@H](CCN2CCC(n3nccc3-c3ccccc3)CC2)CC1)c1cccc2ncccc12` [Compound I-007] were, in that order, greater than 1800 nM and 2.7 nM. The like results for `Cc1cc(CC(=O)N[C@H]2CC[C@H](CCN3CCC(c4nocc4C(C)(F)F)CC3)CC2)on1` [Compound I-008] were, in that order, 350 nM and 0.69 nM.

For the compound `Cc1ncc(CC(=O)N[C@H]2CC[C@H](CCN3CCC(c4noc(C)c4C(C)(F)F)CC3)CC2)s1` [Compound I-009], the values for the Ki in test [1] and in test [2] were 330 nM and 1.9 nM, respectively.

Consider `Cc1ncc(CC(=O)N[C@H]2CC[C@H](CCN3CCC(c4nocc4C(C)(F)F)CC3)CC2)s1` [Compound I-010], for which the Ki came out at 230 nM in test [1] and 0.65 nM in test [2].

On to `Cc1ncc(CC(=O)N[C@H]2CC[C@H](CCN3CCC(c4nocc4CC4CC4)CC3)CC2)s1` [Compound I-011], for which the Ki in test [1] was 380 nM; in test [2] it was 0.63 nM. On the same counts, the results for `Cc1ncc(CC(=O)N[C@H]2CC[C@H](CCN3CCC(c4nscc4C(C)(F)F)CC3)CC2)s1` [Compound I-012] are 460 nM and 1.9 nM. As to `Cc1ncc(CC(=O)N[C@H]2CC[C@H](CCN3CCC(c4nocc4C4CC4)CC3)CC2)s1` [Compound I-013], the Ki was determined as 230 nM in test [1] and 0.95 nM in test [2].

Regarding `Cc1ncc(CC(=O)N[C@H]2CC[C@H](CCN3CCN(c4nocc4C(C)(F)F)CC3)CC2)s1` [Compound I-014], the Ki stood at 88 nM in test [1] and 0.2 nM in test [2].

In the case of `CCC(F)(F)c1conc1C1CCN(CC[C@H]2CC[C@H](NC(=O)Cc3nnc(C)s3)CC2)CC1` [Compound I-015], the results for the Ki in test [1] and in test [2] were 67 nM and 0.13 nM, respectively. The like results for `CCC(F)(F)c1conc1C1CCN(CC[C@H]2CC[C@H](NC(=O)c3cccc4nn(C)cc34)CC2)CC1` [Compound I-016] were, in that order, 33 nM and 0.085 nM. The like results for `Cn1cc2c(C(=O)N[C@H]3CC[C@H](CCN4CCN(c5nocc5C(C)(F)F)CC4)CC3)cccc2n1` [Compound I-017] were, in that order, 52 nM and 0.21 nM. On the same counts, the results for `Cn1cc2c(C(=O)N[C@H]3CC[C@H](CCN4CCC(c5nocc5C(F)(F)C5CC5)CC4)CC3)cccc2n1` [Compound I-018] are 45 nM and 0.22 nM. Take `Cc1ncc(CC(=O)N[C@H]2CC[C@H](CCN3CCN(c4nocc4C(C)(F)F)C(C)C3)CC2)s1` (stereo partly drawn) [Compound I-019]: the Ki in test [1] was determined as 68 nM; in test [2], 0.15 nM. On the same counts, the results for `CCC(F)(F)c1conc1C1(F)CCN(CC[C@H]2CC[C@H](NC(=O)Cc3cnc(C)s3)CC2)CC1` [Compound I-020] are 310 nM and 0.37 nM. The like results for `Cn1cc2c(C(=O)N[C@H]3CC[C@H](CCN4CCC5(c6nocc6C(C)(F)F)CC5C4)CC3)cccc2n1` (stereo partly drawn) [Compound I-021] were, in that order, 1700 nM and 4.8 nM. On the same counts, the results for `Cn1cc2c(C(=O)N[C@H]3CC[C@H](CCN4CCC(c5nocc5C(C)(F)F)CC4)CC3)cccc2n1` [Compound I-022] are 170 nM and 0.11 nM. Take `CC(=O)c1conc1C1=CCN(CC[C@H]2CC[C@H](NC(=O)c3cccc4nn(C)cc34)CC2)CC1` [Compound I-023]: the Ki turned out to be 1700 nM in test [1] and 0.69 nM in test [2].

For `Cn1cc2c(C(=O)N[C@H]3CC[C@H](CCN4CC=C(c5nocc5C(C)(F)F)CC4)CC3)cccc2n1` [Compound I-024], the results for the Ki in test [1] and in test [2] were 220 nM and 0.082 nM, respectively.

As to `Cn1cc2c(C(=O)N[C@H]3CC[C@H](CCN4CCC5CC5(c5cc(C(C)(F)F)on5)C4)CC3)cccc2n1` (stereo partly drawn) [Compound I-025], the results for the Ki in test [1] and in test [2] were 1200 nM and 2.4 nM, respectively. The like results for `Cn1cc2c(C(=O)N[C@H]3CC[C@](F)(CCN4CCC(c5nocc5C(C)(F)F)CC4)CC3)cccc2n1` [Compound I-026] were, in that order, 250 nM and 0.55 nM. The like results for `Cn1cc2c(C(=O)N[C@H]3CC[C@H](CCN4C[C@@H]5C[C@]5(c5cc(C(C)(F)F)on5)C4)CC3)cccc2n1` [Compound I-027] were, in that order, greater than 1800 nM and 0.3 nM.

For the compound `Cn1cc2c(C(=O)N[C@H]3CC[C@H](CCN4CC5CC5(c5cc(CF)on5)C4)CC3)cccc2n1` (stereo partly drawn) [Compound I-028], in test [2], the Ki came out at 1.9 nM. As to `Cc1ncc(CC(=O)N[C@H]2CC[C@H](CCN3CC4CC4(c4cc(CF)on4)C3)CC2)s1` (stereo partly drawn) [Compound I-029], the Ki was found to be 1100 nM in test [1] and 2.2 nM in test [2].

With `Cc1cc(C23CC2CN(CC[C@H]2CC[C@H](NC(=O)c4cccc5nn(C)cc45)CC2)C3)no1` (stereo partly drawn) [Compound I-030], the Ki is greater than 1800 nM in test [1] and 2.9 nM in test [2].

For the compound `Cc1cc(C23CC2CN(CC[C@H]2CC[C@H](NC(=O)Cc4cnc(C)s4)CC2)C3)no1` (stereo partly drawn) [Compound I-031], the results for the Ki in test [1] and in test [2] were greater than 1800 nM and 3.8 nM, respectively. Consider `Cn1cc2c(C(=O)N[C@H]3CC[C@H](CCN4CC5CC5(c5cc(C(F)F)on5)C4)CC3)cccc2n1` (stereo partly drawn) [Compound I-032], for which the Ki amounted to 200 nM in test [1] and 0.4 nM in test [2]. For `CC(F)c1cc(C23CC2CN(CC[C@H]2CC[C@H](NC(=O)c4cccc5nn(C)cc45)CC2)C3)no1` (stereo partly drawn) [Compound I-033], the Ki in test [2] was 0.77 nM. On to `Cn1cc2c(C(=O)NN3CCC(CCN4C[C@@H]5C[C@]5(c5cc(C(C)(F)F)on5)C4)CC3)cccc2n1` [Compound I-035], for which the Ki in test [1] came to 870 nM; in test [2] it was 0.24 nM.
